According to patent US7282512B2, “Cycloalkyl ketoamides derivatives useful as cathepsin K inhibitors” (SmithKline Beecham Corporation, priority 2002, dated 2007):

Columns and labels:
human cathepsin K = biological target: T1, human cathepsin K (Homo sapiens, UniProt P43235); test: cathepsin K inhibition assay, fluorogenic substrate Cbz-Phe-Arg-AMC, progress curve method; assay type: biochemical; details: Table 1; human recombinant enzyme, pH 5.5, 30° C., 10 μM substrate; read-out: hcatK Ki
T1 construct: The proform of cathepsin K was converted to mature cathepsin K by brief exposure to pH 4; made in house; host or cells: baculovirus; Trichoplusia ni High Five cells (virus raised in Sf-9)
T1 sequence (P43235 115-329): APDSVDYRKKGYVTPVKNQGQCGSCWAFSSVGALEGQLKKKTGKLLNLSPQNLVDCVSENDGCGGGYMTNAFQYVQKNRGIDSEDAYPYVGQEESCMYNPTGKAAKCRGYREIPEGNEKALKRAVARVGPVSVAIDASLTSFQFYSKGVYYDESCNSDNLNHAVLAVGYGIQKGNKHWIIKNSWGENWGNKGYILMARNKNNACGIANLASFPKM
Protocol: All assays for cathepsin K were carried out with human and rat recombinant enzyme. Assays for cathepsins S & V were also carried out with human recombinant enzyme. Assays for human cathepsins B, H, and L were carried out with enzyme, purchased from Athens Research and Technology, Inc., prepared from human liver tissue. […] A stock substrate solution of Cbz-Phe-Arg-AMC was prepared at a concentration of 50 mM in dimethyl sulfoxide. This substrate was diluted into the assay for a final substrate concentration of 10 μM in the rat cathepsin K, human cathepsin K, and human cathepsin B assays; a final substrate concentration of 5 μM in the human cathepsin L assay; and a final substrate concentration of 2 μM in the human cathepsin V assay.
All assays contained 10% dimethyl sulfoxide. […] All assays were conducted at 30° C. Product fluorescence (excitation at 360 nm; emission at 440 nm, (except cathepsin H which used excitation at 340 nm; emission at 420 nm)) was monitored with a PerSeptive Biosystems Cytofluor II fluorescence plate reader. Product progress curves were generated over 2.3 h monitoring the formation of 7-amino-4-methylcoumarin product (or β-naphthalamide for cathepsin H).
Two liters of Spodoptera frugiperda (Sf-9) cells (ATCC) were grown in Grace's Supplemented medium (Life Technologies) supplemented with 2 g/L glucose, 10% fetal bovine serum (HyClone) and 0.1% pluronic F-68 (Life Technologies). […] The cells continued to grow for 72 h post-infection, before the virus was harvested by centrifugation at 1400×g for 30 min.
One and one-half liters of Trichoplusia ni (T. ni) High Five (™) cells [JRH Biosciences, Woodland, Calif. […] Media were separated from cells at a rate of 1 L/min using the Centritech 100 (™) continuous-flow centrifuge (DuPont) operating at 200×g.
Protein Purification: Media (human and rat) were filtered through a Whatman 3 filter, and then loaded onto a 25 mL Poros HS II (26 mm×47 mm) cation exchange column equilibrated in 25 mM sodium acetate at pH 5.5 (equilibration buffer). The column was washed until the absorbance reached the baseline value, and then the protein was eluted with a linear gradient from 0-2 M sodium chloride in the equilibration buffer. Column fractions were analyzed by SDS-PAGE, N-terminal sequencing, and mass spectrometry. Fractions containing the proform of cathepsin K were pooled and frozen at −80° C. The proform was concentrated in an Amicon Centriprep 10 and fractionated with a Superdex 75 column (26 mm×600 mm, Pharmacia) equilibrated in 400 mM sodium chloride, 25 mM sodium acetate at pH 5.5.
Cathepsin K Activation: The proform of cathepsin K was converted to mature cathepsin K by brief exposure to pH 4 in the presence of 5 mM L-cysteine. Typically, 5 mM L-cysteine was added to 10 mL of approximately 1 mg/mL procathepsin K. One mL of this solution was diluted ten-fold into 450 mM sodium acetate at pH 4.0 containing 5 mM L-cysteine. This solution was reacted at 23° C. for 2 min before neutralization with 2 mL 1.8 M sodium acetate at pH 6.0. The neutralized sample was added to the remaining 9 mL of procathepsin K. The mixture was incubated at 4° C. for 2-3 days. The activated cathepsin K was chromatographed on a Poros HS II column as described above.
Potential inhibitors were evaluated using the progress curve method. Assays were carried out in the presence of variable concentrations of test compound. Reactions were initiated by addition of buffered solutions of inhibitor and substrate to enzyme. Data analysis was conducted according to one of two procedures depending on the appearance of the progress curves in the presence of inhibitors. […] Ki values were calculated from IC50 values using equation 2 assuming a competitive model.

Structure (SMILES) | Ki (human cathepsin K) | melting point
CCCC[C@H](NC(=O)OCC1(CCc2ccccc2)CCC1)C(=O)C(=O)N[C@H](C)c1ccccc1 [Example 6, [1-(2-Phenylethyl)cyclobutyl]methyl(1S)-1-(oxo{[(1R)-1-phenylethyl]amino}acetyl)pentylcarbamate] | 10 to 100 nM | 86 to 88 °C
CCCC[C@H](NC(=O)OCC1(Cc2ccccc2)CCCC1)C(=O)C(=O)N[C@H](C)c1ccccc1 [Example 8, (1-Benzylcyclopentyl)methyl(1S)-1-(oxo{[(1R)-1-phenylethyl]amino}acetyl)pentylcarbamate] | 10 to 100 nM | 108 to 110 °C
CCCC[C@H](NC(=O)OCC1(CSc2nccc(-c3ccc(Cl)cc3)n2)CCC1)C(=O)C(=O)N[C@H](C)c1ccccc1 [Example 33, [1-({[4-(4-chloro phenyl)-2-pyrimidinyl]sulfanyl}methyl)cyclobutyl]methyl (1S)-1-(oxo{[(1R)-1-phenylethyl]amino}acetyl)pentylcarbamate] | 1 to 10 nM | –
CCCC[C@H](NC(=O)OCC1(CSc2nccn2-c2ccccc2)CCC1)C(=O)C(=O)N[C@H](C)c1ccccc1 [Example 28, (1-{[(1-phenyl-1H-imidazol-2-yl)sulfanyl]methyl}cyclobutyl)methyl (1S)-1-(oxo{[(1R)-1-phenylethyl]amino}acetyl)pentylcarbamate] | 10 to 100 nM | –
CCCC[C@H](NC(=O)OCC1(COc2ccnc(N3CCN(c4ccccc4)CC3)n2)CCC1)C(=O)C(=O)N[C@H](C)c1ccccc1 [Example 27, [1-({[2-(4-phenyl-1-piperazinyl)-4-pyrimidinyl]oxy}methyl)cyclobutyl]methyl (1S)-1-(oxo{[(1R)-1-phenylethyl]amino}acetyl)pentylcarbamate] | 10 to 100 nM | –
CCCC[C@H](NC(=O)OCC1(COc2ncnc3ccsc23)CCC1)C(=O)C(=O)N[C@H](C)c1ccccc1 [Example 29, {1-[(thieno[3,2-d]pyrimidin-4-yloxy)methyl]cyclobutyl}methyl (1S)-1-(oxo{[(1R)-1-phenylethyl]amino}acetyl)pentylcarbamate] | 10 to 100 nM | –
CCCC[C@H](NC(=O)OC1(Cc2ccccc2)CCC1)C(=O)C(=O)N[C@H](C)c1ccccc1 [Example 1, 1-Benzylcyclobutyl (1S)-1-(oxo{[(1R)-1-phenylethyl]amino}acetyl)pentylcarbamate] | 100 to 1000 nM | –
C[C@@H](NC(=O)C(=O)[C@H](CCCCNC(=O)N1CCOCC1)NC(=O)OCC1(Cc2ccccc2)CCCCC1)c1ccccc1 [Example 9, (1-Benzylcyclohexyl)methyl(1S)-5-[(4-morpholinylcarbonyl)amino]-1-(oxo{[(1R)-1-phenylethy]amino}acetyl)pentylcarbamate] | 10 to 100 nM | –
CCCC[C@H](NC(=O)OCC1(CSc2nccn2C)CCC1)C(=O)C(=O)N[C@H](C)c1ccccc1 [Example 19, (1-{[(1-methyl-1H-imidazol-2-yl)sulfanyl]methyl}cyclobutyl)methyl (1S)-1-(oxo{[(1R)-1-phenylethyl]amino}acetyl)pentylcarbamate] | 10 to 100 nM | –
CCCC[C@H](NC(=O)OCC1(COc2nc(-c3ccccc3)ns2)CCC1)C(=O)C(=O)N[C@H](C)c1ccccc1 [Example 26, (1-{[(3-phenyl-1,2,4-thiadiazol-5-yl)oxy]methyl}cyclobutyl)methyl (1S)-1-(oxo{[(1R)-1-phenylethyl]amino}acetyl)pentylcarbamate] | 10 to 100 nM | –
CCCC[C@H](NC(=O)OCC1(COc2nc(-c3ccc(C)cc3)cs2)CCC1)C(=O)C(=O)N[C@H](C)c1ccccc1 [Example 31, [1-({[4-(4-methylphenyl)-1,3-thiazol-2-yl]oxy}methyl)cyclobutyl]methyl (1S)-1-(oxo{[(1R)-1-phenylethyl]amino}acetyl)pentylcarbamate] | 100 to 1000 nM | –
CCCC[C@H](NC(=O)OCC1(CCSc2nccn2C)CCC1)C(=O)C(=O)N[C@H](C)c1ccccc1 [Example 36, (1-{2-[(1-methyl-1H-imidazol-2-yl)sulfanyl]ethyl}cyclobutyl)methyl (1S)-1-(oxo{[(1R)-1-phenylethyl]amino}acetyl)pentylcarbamate] | > 1000 nM | –
CCCC[C@H](NC(=O)OCC1(COc2nccs2)CCC1)C(=O)C(=O)N[C@H](C)c1ccccc1 [Example 25, {1-[(1,3-thiazol-2-yloxy)methyl]cyclobutyl}methyl (1S)-1-(oxo{[(1R)-1-phenylethyl]amino}acetyl)pentylcarbamate] | 10 to 100 nM | –
CCCCC(NC(=O)OCC1(COc2nnc(C)cc2-c2ccccc2)CCC1)C(=O)C(=O)N[C@H](C)c1ccccc1 (stereo in doubt) [Example 32, (1-{[(6-methyl-4-phenylpyridazin-3-yl)oxy]methyl}cyclobutyl)methyl (1R)-1-(oxo{[(1R)-1-phenylethyl]amino}acetyl)pentylcarbamate] | 10 to 100 nM | –
CN(C)S(=O)(=O)NCCCC[C@H](NC(=O)OCC1(Cc2ccc(F)cc2)CCC1)C(=O)C(=O)NCc1cccnc1 [Example 16, [1-(4-Fluorobenzyl)cyclobutyl]methyl(1S)-5-{[(dimethylamino)sulfonyl]amino}-1-{oxo[(3-pyridinylmethyl)amino]acetyl}pentylcarbamate] | 10 to 100 nM | –

Results, then the molecule that gave them:

Ki (human cathepsin K) | melting point | Structure (SMILES)
1 to 10 nM | 96 to 98 °C | CCCC[C@H](NC(=O)OCC1(Cc2ccccc2)CCC1)C(=O)C(=O)N[C@H](C)c1ccccc1 [Example 5, (1-Benzylcyclobutyl)methyl(1S)-1-(oxo{[(1R)-1-phenylethyl]amino}acetyl)pentylcarbamate]
10 to 100 nM | 91 to 93 °C | CCCC[C@H](NC(=O)OCC1(CCCc2ccccc2)CCC1)C(=O)C(=O)N[C@H](C)c1ccccc1 [Example 7, [1-(3-Phenylpropyl)cyclobutyl]methyl(1S)-1-(oxo{[(1R)-1-phenylethyl]amino}acetyl)pentylcarbamate]
100 to 1000 nM | – | CCCC[C@H](NC(=O)OCC1(COc2ccnc(Cl)n2)CCC1)C(=O)C(=O)N[C@H](C)c1ccccc1 [Example 20, (1-{[(2-chloro-4-pyrimidinyl)oxy]methyl}cyclobutyl)methyl(1S)-1-(oxo{[(1R)-1-phenylethyl]amino}acetyl)pentylcarbamate]
100 to 1000 nM | – | CCCC[C@H](NC(=O)OC1(Cc2ccccc2)CCCCC1)C(=O)C(=O)N[C@H](C)c1ccccc1 [Example 4, 1-Benzylcyclohexyl(1S)-1-(oxo{[(1R)-1-phenylethyl]amino}acetyl)pentylcarbamate]
100 to 1000 nM | – | CCCC[C@H](NC(=O)OCC1(CSc2ncc(-c3ccc(Cl)cc3)n2C)CCC1)C(=O)C(=O)N[C@H](C)c1ccccc1 [Example 34, [1-({[5-(4-chlorophenyl)-1-methyl-1H-imidazol-2-yl]sulfanyl}methyl)cyclobutyl]methyl (1S)-1-(oxo{[(1R)-1-phenylethyl]amino}acetyl)pentylcarbamate]
1 to 10 nM | – | C[C@@H](NC(=O)C(=O)[C@H](CCCCNC(=O)N1CCOCC1)NC(=O)OCC1(Cc2ccncc2)CCC1)c1ccccc1 [Example 11, [1-(4-Pyridinylmethyl)cyclobutyl]methyl(1S)-5-[(4-morpholinylcarbonyl)amino]-1-(oxo{[(1R)-1-phenylethyl]amino}acetyl)pentylcarbamate]
10 to 100 nM | – | CCCC[C@H](NC(=O)OC1(Cc2ccccc2)CCCC1)C(=O)C(=O)N[C@H](C)c1ccccc1 [Example 2]
